The values below come from patent US6521655B1, “Substituted imidazoles useful in the treatment of inflammatory diseases” (Ortho-McNeil Pharmaceutical, Inc., priority 1997, dated 2003).

Assay [1] relates to TNF-α. In words: in vitro whole cell assay, LPS-stimulated PBMC, TNF-α ELISA. In kind it is cell-based. The note with it: LPS-stimulated human PBMC. How it is done: Aside from the enzyme assay, many of the compounds of the invention were tested in an in vitro whole cell assay using peripheral blood mononuclear cells (“PBMC”) which were obtained from human blood as follows. Freshly obtained venous blood was anticoagulated with heparin, diluted with an equal volume of phosphate buffered saline (“PBS”) and placed in a sterile tube or other container. Aliquots (30 mL) of this mixture were transferred to centrifuge tubes which were underlaid with Ficoll-Hypaque (15 mL). The prepared tubes were centrifuged at 400×g without braking for 30 min at room temperature. Approximately ½ to ⅔ of the platelet layer above the mononuclear cell band was removed with a pipette. The majority of the mononuclear cell layer was carefully removed using a pipette and these PBMCs were diluted with PBS and spun at 600×g for 15 min. […] A small volume of the suspension was removed for counting on a hemocytometer and the remaining preparation was centrifuged at 200×g for 15 min at room temperature. The recovered pelleted PMBC were resuspended in RPMI/1% FCS to a concentration of 1.67×10^6/mL. To run the assay, the PBMC suspension (180 μL) was transferred to duplicate wells of a 96-well flat-bottom microtiter plate and incubated for 1 h at 37° C. […] A solution (10 μL) of LPS in RPMI/1% FCS (200 ng/mL) was added and the wells were incubated overnight at 37° C. The supernate ([…]) was removed from each well and diluted with RPMI/1% FCS (400 μL). The samples were analyzed for TNF-α using a commercial ELISA kit (Genzyme).
On the technique in general: An ELISA detects its analyte on a solid surface through an enzyme-linked reagent.

The next assay has as its target T1, purified recombinant p38 (Homo sapiens, UniProt Q16539).
T1 construct: 6xHis; made in house; host or cells: E. coli
As to the kind of experiment: p38 in vitro enzyme assay (33P-ATP, myelin basic protein substrate). The format is biochemical. The note with it: for IC50: read-out: p-38 IC50. On the procedure: As discussed previously, agents which inhibit the activity of the enzyme p38, inhibit the production of the inflammatory cytokines TNF-α, and IL-1β. Compounds of the invention were measured for their ability to inhibit the activity of p38 by the following in vitro assay.
A solution (38 μL) of purified recombinant p38 (where the amount of enzyme was determined empirically considering the linear range of the assay and the acceptable signal to noise ratio; 6×His-p38 expressed in E.coli), myelin basic protein substrate (also determined empirically), a buffer of pH 7.5 (Hepes:25 mM, MgCl2:10 mM, MnCl2:10 mM) were added to 92 wells of a 96-well round bottom polypropylene plate. The remaining wells were used for control (“CTRL”) and background (“BKG”). The CTRL was prepared with the enzyme, substrate buffer and 2% DMSO, and the BKG was prepared with substrate buffer and 2% DMSO. A solution (12 μL) of the test compound in DMSO (compounds were diluted to 125 μM in 10% DMSO/H2O and assayed at 25 μM where the final DMSO concentration was 2%) was added to the testing wells. The ATP/^33P-ATP solution (10 μL: containing 50 μM unlabeled ATP and 1 μCi ^33P-ATP) was added to all wells and the completed plates were mixed and incubated at 30° C. for 30 min. Ice-cold 50% TCA/10 mM sodium phosphate (60 μL) were added to each well and the plates were kept on ice for 15 min. The contents of each well were transferred to the wells of a 96-well filterplate (Millipore, MultiScreen-DP) and the filterplate was placed on a vacuum manifold, fitted with a waste collection tray. The wells were washed five times with 10% TCA/10 mM sodium phosphate (200 μL) under vacuum. MicroScint-20 scintillant was added, the plates were sealed using Topseal-S sheets and counted in a Packard TopCount scintillation counter using a ^33P liquid program with color quench correction, where the output is in color quench-corrected cpm. The % inhibition of the test compounds was calculated by the following formula: % inhibition=[1−(sample -BKG)/(CTRL-BKG)]×100.
Although compounds were initially tested at […], if warranted the compounds were tested at 4-fold increments above and below that concentration. In addition, IC50s were calculated for some compounds using the Deltagraph 4-parameter curve fitting program.

Assay [2] has as its system TNF-α. As to the kind of experiment: in vivo LPS induced TNF-α production, mice. Also noted: species or system Mice (BALB/cJ females). As to conditions: 25 mg/kg, oral, LPS 1 mg/kg i.p. How it is done: (§1) Thirty minutes after dosing, the animals were injected intraperitoneally with LPS at 1 mg/kg and returned to their cages for 1 h. Animals were anesthetized by CO2, exsanguinated by cardiac puncture and whole blood collected (0.1-0.7 mL). The blood was allowed to clot and serum was transferred to a centrifuge tube. This sample was centrifuged, serum was collected, aliquoted and frozen at −80° C. Samples were tested by commercial ELISAs for TNF-α (Endogen for mouse TNF-α and Biosource for rat TNF-α).

Another assay deals with IL-1β. As to the kind of experiment: in vitro IL-1β assay, plastic-adherent cells from PBMC, LPS stimulation, ELISA. The note with it: Homo sapiens, read-out: inhibition of production of IL-1β, IC50. The format is cell-based. On the procedure: The IL-1β activity of select compounds of the invention was determined by the following in vitro assay. Plastic-adherent cells were prepared from PBMC. Briefly, PBMCs were added to the wells of a 96-well plate as above, incubated for 1 h at 37° C., and the adherent cells prepared by gently resuspending the non-adherent cells with a pipettor, removing and discarding them and gently washing the wells 3 times with 200 μL culture medium. Additional culture medium (180 μL) was added to the wells after the final wash. Compound addition, LPS stimulation, incubation and supernate harvest were as for TNF-α. Supernates were assayed for interleukin-1β using a commercial ELISA (Genzyme).

The subject of assay [3] is TNF-α. In words: in vivo LPS induced TNF-α production, rats. Also noted: species or system rats (Lewis males). The note with it: 25 mg/kg, oral, LPS 1 mg/kg i.p. On the procedure:
as §1

SMILES strings stand for the structures.

T1 sequence (Q16539 whole entry): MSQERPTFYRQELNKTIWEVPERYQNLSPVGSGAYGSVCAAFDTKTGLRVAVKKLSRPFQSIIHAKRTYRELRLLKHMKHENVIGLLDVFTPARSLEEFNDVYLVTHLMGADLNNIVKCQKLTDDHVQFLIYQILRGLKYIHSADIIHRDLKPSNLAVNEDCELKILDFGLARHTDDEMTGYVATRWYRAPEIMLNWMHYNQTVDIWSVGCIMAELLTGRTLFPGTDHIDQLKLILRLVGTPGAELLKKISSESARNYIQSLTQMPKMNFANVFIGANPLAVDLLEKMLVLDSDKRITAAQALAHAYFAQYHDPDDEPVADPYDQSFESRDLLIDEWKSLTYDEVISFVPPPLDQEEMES

`CC(=O)OCCC#Cc1nc(-c2ccc(F)cc2)c(-c2ccncc2)n1CCCc1ccccc1` [compound 52]: the half-inhibitory concentration (IC50) in the assay with TNF-α [1] came out at 2.6 nM.

In the case of `CCCCSCCCC#Cc1nc(-c2ccc(F)cc2)c(-c2ccncc2)n1CCCc1ccccc1` [compound 39], in the assay on TNF-α [1], 200 nM corresponded to half-maximal inhibition (IC50).

As for `OCCCC#Cc1nc(-c2ccc(F)cc2)c(-c2ccncc2)n1CCCc1ccccc1` [compound 35], the p-38 % inhibition on purified recombinant p38 (@ 20 μm) is reported as 99% @ 20 μm. This compound displayed an IC50 in the assay with TNF-α [1] of 8 nM. Moreover, the “% Inhibition TNF-α Mice” value in the assay on TNF-α [2] turned out to be 68%.

In turn, `OCCCCC#Cc1nc(-c2ccc(F)cc2)c(-c2ccncc2)[nH]1` [compound 24] gave an IC50 in the assay with TNF-α [1] of 100 nM. Moreover, in the assay with TNF-α [2], the “% Inhibition TNF-α Mice” value stood at 73%.

In the case of `OCCC#Cc1nc(-c2ccc(F)cc2)c(-c2ccncc2)[nH]1` [compound 21], the IC50 in the assay with TNF-α [1] stood at 80 nM.

For `C#Cc1nc(-c2ccc(F)cc2)c(-c2ccncc2)[nH]1` [compound 30], the IC50 in the assay with TNF-α [1] came out at 150 nM.

On to `Fc1ccc(-c2nc(C#CCCCl)n(CCCc3ccccc3)c2-c2ccncc2)cc1` [compound 16], for which, in the assay on TNF-α [1], the IC50 is 6 nM.

`O/N=C/c1nc(-c2ccncc2)c(-c2ccc(F)cc2)[nH]1` [compound 13] came in with an IC50 with TNF-α [1] of 45 nM.

For `OCCC#Cc1nc(-c2ccc(F)cc2)c(-c2ccncc2)n1CCCc1ccccc1` [Cpd. 4], the results for the IC50 in the assay on IL-1β, on purified recombinant p38 and in the assay with TNF-α [1] were 7 nM, 650 nM and 3 nM, respectively. The “% Inhibition TNF-α Rats” value in the assay on TNF-α [3] is recorded as 91%. In the assay on TNF-α [2], the “% Inhibition TNF-α Mice” value came out at 49.6%.

Regarding `C[Si](C)(C)CCOCn1c(C=C(Br)Br)nc(-c2ccc(F)cc2)c1-c1ccncc1` [compound 18], 1500 nM corresponded to half-maximal inhibition in the assay with TNF-α [1] (IC50).

In turn, `Fc1ccc(-c2nc(C=NOCc3ccccc3)[nH]c2-c2ccncc2)cc1` [compound 32] came in with an IC50 in the assay with TNF-α [1] of 80 nM.

For `Fc1ccc(-c2[nH]c(/C=C/Cl)nc2-c2ccncc2)cc1` [compound 8], the IC50 at purified recombinant p38 was 1500 nM.

Take `C[Si](C)(C)CCOCn1c(C=C(Br)Br)nc(-c2ccncc2)c1-c1ccc(F)cc1` [compound 10]: the p-38 % inhibition at purified recombinant p38 (@ 5 μm) stood at 16% @ 5 μm.

As to `OCC#Cc1nc(-c2ccc(F)cc2)c(-c2ccncc2)n1CCCc1ccccc1` [compound 47], the IC50 with TNF-α [1] was 7.2 nM.

On to `Fc1ccc(-c2nc(C=C(Br)Br)[nH]c2-c2ccncc2)cc1` [compound 44], for which the p-38 % inhibition on purified recombinant p38 (@ 20 μm) is on record as 93% @ 20 μm. Further, the IC50 in the assay on TNF-α [1] stood at 200 nM.

For the compound `CCCCS(=O)(=O)CCCC#Cc1nc(-c2ccc(F)cc2)c(-c2ccncc2)n1CCCc1ccccc1` [compound 40], the midpoint of inhibition with TNF-α [1], the IC50, lay at 6.5 nM.

`CCCC#Cc1nc(-c2ccncc2)c(-c2ccc(F)cc2)n1COCC[Si](C)(C)C` [compound 26]: the IC50 with TNF-α [1] is greater than 2000 nM. Moreover, the “% Inhibition TNF-α Mice” value with TNF-α [2] is on record as 0%.

In the assay with TNF-α [1], `COCCC#Cc1nc(-c2ccc(F)cc2)c(-c2ccncc2)n1CCCc1ccccc1` [compound 49] displayed an IC50 of 3 nM.

Turning to `Fc1ccc(-c2nc(C#CCCCc3ccccc3)n(CCCc3ccccc3)c2-c2ccncc2)cc1` [compound 38], half-maximal inhibition in the assay on TNF-α [1] (IC50) was put at 40 nM.

The compound `Fc1ccc(-c2nc(C#CCCCCl)n(CCCc3ccccc3)c2-c2ccncc2)cc1` [compound 14] showed an IC50 with TNF-α [1] of 4 nM.

For `OCCCCC#Cc1nc(-c2ccc(F)cc2)c(-c2ccncc2)n1CCCc1ccccc1` [compound 43], the p-38 % inhibition on purified recombinant p38 (@ 20 μm) turned out to be 98% @ 20 μm. This compound also had an IC50 with TNF-α [1] of 5.2 nM. In addition, the “% Inhibition TNF-α Mice” value in the assay on TNF-α [2] turned out to be 53%.

Turning to `C[Si](C)(C)CCOCn1c(C#CCCO)nc(-c2ccncc2)c1-c1ccc(F)cc1` [compound 20], in the assay on TNF-α [1], the 50% inhibitory concentration (IC50) is greater than 10000 nM.

For the compound `N#CCCCC#Cc1nc(-c2ccc(F)cc2)c(-c2ccncc2)n1CCCc1ccccc1` [compound 36], the IC50 amounted to 13 nM in the assay with IL-1β, 1500 nM at purified recombinant p38 and 9 nM with TNF-α [1]. The “% Inhibition TNF-α Mice” value with TNF-α [2] is recorded as 69.3%.

Consider `CCCC#Cc1nc(-c2ccc(F)cc2)c(-c2ccncc2)n1CCCc1ccccc1` [compound 34], for which the IC50 with TNF-α [1] stood at 10 nM. Besides, the “% Inhibition TNF-α Mice” value in the assay with TNF-α [2] was 53%.

In turn, `C=CC#Cc1nc(-c2ccc(F)cc2)c(-c2ccncc2)n1CCCc1ccccc1` [compound 51] yielded an IC50 with TNF-α [1] of 5.5 nM.

Consider `O=C1c2ccccc2C(=O)N1CCCC#Cc1nc(-c2ccc(F)cc2)c(-c2ccncc2)[nH]1` [compound 22], for which, in the assay on TNF-α [1], the IC50 amounted to 700 nM.

`C[Si](C)(C)CCOCn1c(C#CCCCN2C(=O)CCC2=O)nc(-c2ccc(F)cc2)c1-c1ccncc1` [compound 45]: the IC50 with TNF-α [1] worked out at 650 nM.

In turn, `O=C1c2ccccc2C(=O)N1CCCC#Cc1nc(-c2ccncc2)c(-c2ccc(F)cc2)[nH]1` [compound 29] had an IC50 with TNF-α [1] of 200 nM.

As for `O=C(OCCC#Cc1nc(-c2ccc(F)cc2)c(-c2ccncc2)n1CCCc1ccccc1)c1ccccc1` [compound 50], half-maximal inhibition with TNF-α [1] (IC50) required 2 nM.

For `N#CC=Cc1nc(-c2ccc(F)cc2)c(-c2ccncc2)[nH]1` [compound 46], the IC50 in the assay with TNF-α [1] worked out at 250 nM.

In the assay with TNF-α [1], `CN(C)CCC#Cc1nc(-c2ccc(F)cc2)c(-c2ccncc2)n1CCCc1ccccc1` [compound 17] had an IC50 of 3 nM.

On to `OCCCC#Cc1nc(-c2ccc(F)cc2)c(-c2ccncc2)[nH]1` [compound 19], for which the midpoint of inhibition with TNF-α [1], the IC50, lay at 85 nM. Further, the “% Inhibition TNF-α Mice” value in the assay with TNF-α [2] is 29%.

In turn, `CCCC#Cc1nc(-c2ccncc2)c(-c2ccc(F)cc2)[nH]1` [compound 28] showed an IC50 with TNF-α [1] of 80 nM. Moreover, the “% Inhibition TNF-α Mice” value in the assay with TNF-α [2] is on record as 88%.

`O=C(Nc1ccccc1)OCCC#Cc1nc(-c2ccc(F)cc2)c(-c2ccncc2)n1CCCc1ccccc1` [compound 15] displayed an IC50 in the assay with TNF-α [1] of 38 nM.

Take `O=[N+]([O-])c1ccc(CON=Cc2nc(-c3ccc(F)cc3)c(-c3ccncc3)[nH]2)cc1` [compound 33]: the IC50 in the assay on TNF-α [1] is 150 nM.

In the assay with TNF-α [1], `Fc1ccc(-c2nc(C#CBr)[nH]c2-c2ccncc2)cc1` [compound 31] registered an IC50 of 250 nM.

For the compound `O=C1c2ccccc2C(=O)N1CCCn1c(C#CCCO)nc(-c2ccc(F)cc2)c1-c1ccncc1` [compound 37], 160 nM corresponded to half-maximal inhibition in the assay on TNF-α [1] (IC50).

Usually IC50 stands for the midpoint of a concentration-inhibition curve.
